Assay results taken from US6982142B2, “Methods for screening therapeutically effective agents” (John Wayne Cancer Institute, priority 1997, dated 2006).
Like-named read-outs stand apart in the source and are kept apart here.

Assays:
MCF-7-wt cells = experiment: Cytotoxicity assay (Promega) in chemosensitive wild-type breast cancer cells; assay type: cell-based, human; settings: C6-ceramide at increasing concentrations, 72 hr
MCF-7 cells = experiment: cells; assay type: cell-based; settings: Homo sapiens, MCF7, 96 h, read-out: EC50 (cytotoxicity)
Experimental: (§1) Cytotoxicity Assay. The assay was performed as previously described (Lavie, 1997). […] Cultures were incubated at 37° C. for 24 hr before addition of drug. Drugs were added in FBS-free medium (0.1 ml), and cells were cultured at 37° C. for the indicated periods. Drug cytotoxicity was determined using the Promega 96 Aqueous cell proliferation assay kit. Absorbance at 490 nm was recorded using an ELISA reader (Molecular Devices, San Diego, Calif.).
(§2) Adriamycin was used to assess the influence of GCS transfection on cellular response to anthracyclines. After pretreatment with doxycycline for two days, MCF-7/GCS cells were incubated with increasing concentrations of adriamycin for four days. […] It was observed that MCF-7/GCS cells were resistant to ceramide toxicity as well. […] However, the EC50 in the TC group was nearly identical with that of MCF-7 cells, there being no statistical difference between the two groups (FIG. 14C).

MCF-7/GCS cells = assay type: cell-based, human; settings: MCF-7/GCS vs MCF-7
Experimental: as §1, §2

MCF-7-AdrR cells [1] = experiment: cells; settings: Homo sapiens, read-out: cell viability
GCS mRNA = experiment: Northern blot of GCS mRNA expression in MCF-7/GCS cells; assay type: cell-based, human
Experimental: (A) Northern Blot showing regulated expression of GCS mRNA in MCF-7 and MCF-7/GCS cells incubated with the indicated concentrations of doxycycline (dox, μg/ml). Total RNA per lane was 15 micrograms. Ethidium bromide-stained RNA (28 S) was used as a control for even loading. Densities of GCS/28 S RNA (×100) in MCF-7/GCS cells were 16, 18, 97, 256 at 0, 0.1, 1.0 and 3.0 μg/ml doxycycline, respectively. (B) Dose-response of GCS activity to doxycycline. Cells were incubated for 96 hr in medium containing the indicated concentrations of doxycycline. GCS activity was analyzed by radioenzymatic assay. * p<0.01, **p<0.001 compared with MCF-7 cells. (C) Doxycycline-induced resistance to ceramide. Cells were pretreated with the indicated concentrations of doxycycline for 48 hr, seeded in 96-well plates, and treated the following day with 5 μM C6ceramide in RPMI-1640 medium containing 5% FBS. Cell viability was determined after 96 hr. Data represent the mean ±SD of six replicates from two independent experiments. Control cells were cultured in medium without C6-ceramide. * p<0.001 compared to MCF-7 cells; **p<0.001, compared to MCF-7 cells exposed to 1.0 μg/ml doxycycline.
RNA Analysis. RNA was extracted from cells using the single-step method described by Chomczynski and Sacchi (Chomczynski, 1987). Equal amounts of total RNA (15 μg) were denatured in 59% formamide/2.2 M formaldehyde, size separated by electrophoresis on 1% agarose-formaldehyde, and then blotted onto nitrocellulose-plus (Sambrook, 1989). GCS cDNA was prepared from pCG-2 plasmid, digested with EcoR I, and Hind III (Stratagene, La Jolla, Calif.). […]
If ceramide resistance is induced by GCS expression in MCF-7/GCS cells, the resistance response should be tightly correlated with the level of the inducer, doxycycline. It was determined that increasing doxycycline concentrations correlated closely with increased expression of GCS, which in turn correlated well with increased resistance of the cells to C6ceramide. […]

[2] = system: glucosylceramide synthase; experiment: Glucosylceramide synthase radioenzymatic assay on microsomes of Tet-on GCS-transfected clones; assay type: cell-based, human
Experimental: Glucosylceramide Synthase Assay. To determine the expression of GCS in the hygromycin-resistant clones, a modified radioenzymatic assay was utilized (Lavie, 1997; Shukla, 1990). After incubation in the absence or presence of doxycycline (3 μg/ml, 48 hr), cells were homogenized by sonication in lysis buffer (50 mM Tris-HCl, pH 7.4, 1.0 μg/ml leupeptin, 10 μg/ml aprotinin, 25 μM PMSF). Microsomes were isolated by centrifugation (129,000×g, 60 min). The enzyme assay, containing 50 μg microsomal protein, in a final volume of 0.2 ml, was performed in a shaking water bath at 37° C. for 60 min. The reaction contained liposomal substrate composed of C6-ceramide (1.0 mM), phosphatidylcholine (3.6 mM, MW 786.15), and brain sulfatides (0.9 mM, MW 563). The liposomal substrate was prepared by mixing the components, evaporating the solvents under a stream of nitrogen, and sonicating in water over ice for 1-min using a microtip at 50% output (Kontes, Micro Ultrasonic Cell Disrupter). Other reaction components included sodium phosphate buffer (0.1 M) pH 7.8, EDTA (2.0 mM), MgCl2 (10 mM), dithiothreitol (1.0 mM), β-NAD (2.0 mM), and [^3H]UDP-glucose (0.5 mM). Radiolabeled and unlabeled UDP-glucose were diluted to achieve the desired radiospecific activity (4,700 dpm/nmol). To terminate the reaction, tubes were placed on ice and 0.5 ml isopropanol and 0.4 ml Na2SO4 were added. After brief vortex mixing, 3 ml t-butyl methyl ether was added and the tubes were mixed for 30 sec. After centrifugation, 0.5 ml upper phase which contained GC, was withdrawn and mixed with 4.5 ml EcoLume for analysis of radioactivity by liquid scintillation spectroscopy.
After co-transfection of pTRE-GCS and pTK-Hyg into clone 1 and clone 16 of MCF-7 Tet-on cells, 65 hygromycin-resistant clones were selected. […] Compared with a basal level of 17.2±0.1 pmol GC in MCF-7 wt cells, doxycycline-induced GCS activity in MCF-7/GCS12, […] and MCF-7/GCS14 was to 167.4±17.2, 183.3±12.4, and 90.2±2.76 pmol GC, respectively (FIG. 13A). There were no differences in either basal or doxycycline-induced GCS activity in transfection control cells (TC) or in the basal level of GCS in MCF-7 wt cells (FIG. 13A). In MCF-7/GCS13 and MCF-7/GCS14, the doxycycline-inducible GCS activities were 1.6-fold and 4.1-fold, respectively, above untreated cells. The MCF-7/GCS14 clone was designated MCF-7/GCS, and this clone was used in further experiments.

MCF-7-AdrR cells [3] = experiment: Cell radiolabeling and TLC/LSC analysis of ceramide, glucosylceramide and sphingomyelin in MDR breast cancer cells; assay type: cell-based, human; settings: adriamycin 2.5, PSC 833 5.0 μM, tamoxifen 5.0 μM alone or combined, 24 h, [3H]palmitic acid
Experimental: Cells. Experiments were conducted using the human MDR breast cancer cell line, MCF-7 AdrR (adriamycin resistant) provided by Drs. Kenneth H. Cowan and Merrill E. Goldsmith, National Cancer Institute. Cells were grown in RPMI-1640 medium containing 10% FBS (fetal bovine serum) and antibiotics as previously described (Lavie, 1997) and cultures were maintained in a humidified 6.5% CO2 atmosphere incubator. Trypsin (0.05%) and EDTA (0.5 mM) were used for subculture. Plastic tissue cultureware, was from Costar (96-well plates) and Corning (6-well plates, 6-cm dishes, T-75 flasks). Limited experiments were conducted using the human MDR epidermoid carcinoma cell line, KBV-1, provided by Dr. Michael M. Gottesman, National Cancer Institute. Cells were maintained as described (Lavie, 1996). Vinblastine was eliminated from the culture medium during the experiments.
Cell Radiolabeling and Lipid/Glycolipid Analysis. To follow lipid metabolism, cells were grown in the presence of tritiated ceramide precursors, L-[^3H]serine (20 Ci/mmol) (American Radiolabeled Chemicals, Inc., St. Louis), and [9, 10-^3H]palmitic acid (50 Ci/mmol) (DuPont NEN). Labeling media were prepared by adding microliter amounts of tritiated compounds (supplied in ethanol or sterile water) to medium containing only 5% FBS. After radiolabeling, 0.1 ml aliquots of medium were removed and analyzed by LSC (Lavie, 1997), in order to determine cellular uptake of the tritiated compounds. Cell monolayers were then rinsed twice with cold phosphate-buffered saline. Ice cold methanol containing 2% acetic acid was added, and cells were scraped free of the substratum (plastic scraper) for lipid extraction using chloroform and water in 1-dram glass vials as described (Lavie, 1997; Lavie, 1996; Bligh and Dyer, 1959). After centrifugation, the resulting organic lower phase of the biphasic extraction was withdrawn, transferred to a glass vial, and evaporated to dryness under a stream of nitrogen.
Radioactivity in glucosylceramide was analyzed by TLC resolution of total lipids (Silica Gel G) using a solvent system containing chloroform/methanol/ammonium hydroxide (80:20:2, v/v/v). Migration of glucosylceramide on TLC was compared with that of commercial standard (glucocerebrosides, Gaucher's spleen, Matreya, Inc., Pleasant Gap, Pa.), and lipid spots, after iodine vapor visualization, were scraped for tritium quantitation by LSC (Lavie, 1997; Lavie, 1996). […] Ceramide and sphingomyelin commercial standards (brain-derived) were from Avanti Polar Lipids, Alabaster, Ala. After iodine visualization of lipids, areas of the chromatogram corresponding to ceramide and sphingomyelin were scraped into minivials containing 0.5 ml water followed by 4.5 ml EcoLume (ICN, Costa Mesa, Calif.), and samples were analyzed for tritium by liquid scintillation spectrometry. Alternative analysis of ceramide consisted of subjecting an aliquot of the total cell lipid extract to mild alkaline hydrolysis (0.1 N KOH in methanol, 1 h at 37° C.) followed by re-extraction (Lavie, 1997). […] The same can also be done without tritium by simply applying 100-200 μg total cell lipid to TLC plates and developing them in the appropriate solvent, then spraying them with 30% H2SO4, charring the plate in an oven at 180° C. for 20 min, and measuring lipid mass by densitometry.

CCCCCCCCCCCCC/C=C/[C@@H](O)[C@H](CO)NC(=O)CCCCC [C6-ceramide, N-hexanoylsphingosine]
cell viability, dose-response (MCF-7-wt cells): dose dependent decrease in viability | EC50 (MCF-7 cells): 3.1 ± 0.5 µM | EC50 in MCF-7/GCS cells relative to EC50 in MCF-7 cells (MCF-7/GCS cells): 4 fold | EC50 in MCF-7/GCS cells relative to EC50 in MCF-7 cells (MCF-7/GCS cells; listed as ceramide): 5 fold | viability at 10 µM (MCF-7-AdrR cells [1]; 72 h): 84% | viability at 5 µM (MCF-7-AdrR cells [1]): 86%

C[C@H]1c2cccc(O)c2C(=O)C2=C(O)[C@]3(O)C(=O)C(C(N)=O)=C(O)[C@@H](N(C)C)[C@@H]3[C@@H](O)[C@@H]21.Cl [doxycycline, Doxycycline hydrochloride]
GCS mRNA density (GCS band/28 S RNA×100) (GCS mRNA; doxycycline 0.1 μg/ml): 18 | GCS mRNA density (GCS band/28 S RNA×100) (GCS mRNA; doxycycline 1.0 μg/ml): 97 | GCS mRNA density (GCS band/28 S RNA×100) (GCS mRNA; doxycycline 3.0 μg/ml): 256 | doxycycline-induced GCS activity ([2]; clone MCF-7/GCS3 (so in the source), doxycycline 3 μg/ml): 183.3±12.4 pmol GC | doxycycline-induced GCS activity ([2]; clone MCF-7/GCS12, doxycycline 3 μg/ml): 167.4±17.2 pmol GC | doxycycline-inducible GCS activity above untreated cells ([2]; clone MCF-7/GCS13): 1.6 fold | doxycycline-inducible GCS activity above untreated cells ([2]; clone MCF-7/GCS14): 4.1 fold | doxycycline-induced GCS activity ([2]; clone MCF-7/GCS14, doxycycline 3 μg/ml): 90.2±2.76 pmol GC

CC/C(=C(\c1ccccc1)c1ccc(OCCN(C)C)cc1)c1ccccc1 [tamoxifen, Tamoxifen]
ceramide level, increase over control (MCF-7-AdrR cells [3]): 0.3 fold
